Assay results reported in publication PMC11638965, “Leveraging Dual-Ligase Recruitment to Enhance Protein Degradation via a Heterotrivalent Proteolysis Targeting Chimera” (Journal of the American Chemical Society, 2024).
Where two headings read alike, the source gives them in different places.

What was measured:
[1] = biological target: T1, VHL (Homo sapiens, UniProt P40337); test: Western blot dose-response degradation in HEK293 cells; assay type: cell-based; settings: 1 μM to 100 pM, 6 h
T1 construct: host or cells: HEK293, transient
T1 sequence (P40337 whole entry): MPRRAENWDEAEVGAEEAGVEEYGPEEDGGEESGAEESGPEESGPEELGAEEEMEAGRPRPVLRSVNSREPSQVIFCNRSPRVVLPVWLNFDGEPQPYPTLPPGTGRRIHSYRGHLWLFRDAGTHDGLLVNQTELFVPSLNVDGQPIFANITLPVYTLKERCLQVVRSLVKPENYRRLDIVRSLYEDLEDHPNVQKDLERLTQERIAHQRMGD
How it was run: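 HEK293 cells treated 6 h at 37 °C with compound over 1 μM to 100 pM alongside vehicle control; lysates in RIPA immunoblotted with target antibodies, tubulin as loading control, fluorescent detection. Band intensities fitted by linear regression to give pDC50; SD for two independent repeats, SEM for three.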

[2] = biological target: T1, VHL; test: NanoBRET lytic and live cell target engagement assay; assay type: binding
Experimental: CRBN (N2910, Promega) and VHL (N2930, Promega) NanoBRET target engagement assays were performed according to manufacturer’s instructions. Transfection complexes were prepared using 1 mL Opti-MEM, 30 μL FuGENE HD, and either 9 μg/mL DDB1 Expression Vector and 1 μg/mL NanoLuc-CRBN fusion vector, or 9 μg/mL Transfection Carrier DNA and 1 μg/mL VHL-NanoLuc fusion vector. Transfection complexes were allowed to form for 20 min at room temperature, then were added to 20 mL of HEK293 cells at density of 200,000 cells/mL. Transfected HEK293 cells were plated in a T75 flask and allowed to express protein overnight. The next day, 85 μL of transfected cells (at 200,000 cells/mL) were replated in white nonbinding 96-well plates for live and lytic target engagement measurements. For live mode, a 100x solution of NanoBRET tracer was prepared using 100% DMSO (50 μM for CRBN live-cell, 100 μM for VHL live-cell). 100x tracer was used to prepare 20× tracer using tracer dilution buffer. PROTACs or test compounds were prepared at 10x final concentrations in Opti-MEM. Five μL of the prepared tracer was then dispensed to each well and the plate was mixed on an orbital shaker at 300 rpm for 15 s. Ten μL of each 10x PROTAC dilution was added to the cells and the plate was mixed again before being incubated at a 37 °C, 5% CO2 incubator for 2 or 5 h (as indicated in each figure). After incubation, a 50 μL of a 3X substrate solution (containing 30 μL NanoBRET Nano-Glo Substrate, 10 μL Extracellular NanoLuc inhibitor, and 4960 μL of Opti-MEM) was added to each well. Plates were incubated for 2–3 min at room temperature, then donor emission (450 nm) and acceptor emission (at 610 nm) values were read using a GloMax Discover. For lytic mode, the following changes were made. 100x tracer concentration for CRBN was 13 μM, 100X tracer concentration for VHL was 25 μM, 75 μL of a 200,000 cell/mL solution was plated in white nonbinding 96-well plates, and 10 μL of a 10x digitonin solution was added immediately after the cells were treated with PROTACs. Plates were incubated in darkness for 5 min after digitonin addition to allow for permeabilization. 50 μL of 3X substrate (30 μL NanoBRET Nano-Glo substrate and 4970 μL Opti-MEM) was added to each well and plates were incubated for 1 min at room temperature before being read on a GloMax Discover as above.

[3] = biological target: BRD4 (Homo sapiens, UniProt O60885); test: NanoBRET ubiquitination assay; assay type: cell-based; settings: parental vs CRBN KO or VHL KO HiBiT-BRD4 cells, HaloTag-Ubiquitin, 12 nM to 3 μM, 4 h
Experimental: NanoBRET ubiquitination experiments were conducted using Promega kit ND2690. HEK293 HiBiT-BRD4 parental, VHL KO, or CRBN KO cells (all stably expressing LgBiT) were plated in 6-well plates at 800,000 cells/well and allowed to adhere for 4–6 h prior to being transfected with 2 μg of HaloTag-Ubiquitin Fusion Vector. Cells were allowed to express overnight, then were trypsinized and resuspended in Opti-MEM (reduced serum, no phenol red) 4% FBS at a concentration of 220,000 cells/mL. HaloTag NanoBRET 618 ligand was added at a final concentration of 100 nM to cells (with a portion of cells retained without ligand for use as no-acceptor controls for normalization). 90 μL of cells were then dispensed into each well of a tissue culture 96-well plate and cells were allowed to adhere overnight. The next day, media was aspirated from cells and replaced with 90 μL of a 1× solution of Opti-MEM 4% FBS containing a 1:100 dilution of Nano-Glo Vivazine substrate. […] 10 μL of each 10 × PROTAC was added to each well and the plate was immediately placed in a ClarioStar plate reader (prewarmed to 37 °C) where donor emission (460 nm) and acceptor emission (618 nm) was collected every 3 min for 4 h. NanoBRET ratios were calculated as described in the ternary complex assay.

[4] = HEK293 cells with NanoLuc-VHL, VHL fluorescent tracer, live cells 2 h, read-out: IC50 (Live Cell), Target: VHL
[5] = HEK293 cells with NanoLuc-VHL, VHL fluorescent tracer, lysed with digitonin, read-out: IC50 (Lytic Cell), Target: VHL
[6] = displacement of VHL tracer, live cell format, read-out: IC50 VHL, live cell format

SMILES	VHL degradation (in words) [1]	fold stronger binding to VHL with respect to 26, live cell format ([2]; 27 vs 26)	IC50 [2, 4]	IC50 [2, 5]	IC50 [2, 6]	ubiquitination of BRD4 (in words) [3]	IC50 ([2]; displacement of VHL tracer, lytic format, read-out: IC50 VHL, lytic format)	fold weaker at engaging VHL in live cell format than in lytic format ([2]; live vs lytic)
Cc1ncsc1-c1ccc(CNC(=O)[C@@H]2C[C@@H](O)CN2C(=O)[C@@H](NC(=O)COCC(COCCOCCOCCNc2cc3c(cc2F)C(=O)N(C2CCC(=O)NC2=O)C3=O)(COCCOCCOCCOC(=O)C[C@@H]2N=C(c3ccc(Cl)cc3)c3c(sc(C)c3C)-n3c(C)nnc32)COCCOCCOCCOC(=O)C[C@@H]2N=C(c3ccc(Cl)cc3)c3c(sc(C)c3C)-n3c(C)nnc32)C(C)(C)C)cc1 (mixture of isomers) [AB3124 (86)]	no observed degradation of VHL							
Cc1ncsc1-c1ccc([C@H](C)NC(=O)[C@@H]2C[C@@H](O)CN2C(=O)[C@@H](NC(=O)COCC(C)(COCCOCCOCCNc2cc3c(cc2F)C(=O)N(C2CCC(=O)NC2=O)C3=O)COCCOCCOCCOC(=O)C[C@@H]2N=C(c3ccc(Cl)cc3)c3c(sc(C)c3C)-n3c(C)nnc32)C(C)(C)C)cc1 (mixture of isomers) [AB3067 (27), (17S)-11-((2-(2-(2-((2-(2,6-dioxopiperidin-3-yl)-6-fluoro-1,3-dioxoisoindolin-5-yl)amino)ethoxy)ethoxy)ethoxy)methyl)-17-((2S,4R)-4-hydroxy-2-(((S)-1-(4-(4-methylthiazol-5-yl)phenyl)ethyl)carbamoyl)pyrrolidine-1-carbonyl)-11,18,18-trimethyl-15-oxo-3,6,9,13-tetraoxa-16-azanonadecyl 2-((S)-4-(4-chlorophenyl)-2,3,9-trimethyl-6H-thieno[3,2-f][1,2,4]triazolo[4,3-a][1,4]diazepin-6-yl)acetate]		> 4.4 fold	2280 nM	559 nM	> 10000 nM	occurs more rapidly than in either the CRBN KO or VHL KO cells		
Cc1ncsc1-c1ccc(CNC(=O)[C@@H]2C[C@@H](O)CN2C(=O)[C@@H](NC(=O)COCC(C)(COCCOCCOCCNc2cc3c(cc2F)C(=O)N(C2CCC(=O)NC2=O)C3=O)COCCOCCOCCOC(=O)C[C@@H]2N=C(c3ccc(Cl)cc3)c3c(sc(C)c3C)-n3c(C)nnc32)C(C)(C)C)cc1 (mixture of isomers) [AB3063 (26), (17S)-11-((2-(2-(2-((2-(2,6-dioxopiperidin-3-yl)-6-fluoro-1,3-dioxoisoindolin-5-yl)amino)ethoxy)ethoxy)ethoxy)methyl)-17-((2S,4R)-4-hydroxy-2-((4-(4-methylthiazol-5-yl)benzyl)carbamoyl)pyrrolidine-1-carbonyl)-11,18,18-trimethyl-15-oxo-3,6,9,13-tetraoxa-16-azanonadecyl 2-((S)-4-(4-chlorophenyl)-2,3,9-trimethyl-6H-thieno[3,2-f][1,2,4]triazolo[4,3-a][1,4]diazepin-6-yl)acetate]			> 10000 nM	1820 nM	2300 nM		1820 nM	> 5.5 fold
